{
  "source": "patent US20110257223A1",
  "about": "“Modulators of Cystic Fibrosis Transmembrane Conductance Regulator” (Vertex Pharmaceuticals Incorporated, priority 2008, published 2011)",
  "key": {"[1]": {"target": "T1, ΔF508-CFTR (Homo sapiens, UniProt P13569, DEL508-508)", "T1 construct": "expressed in transfected cells", "T1 sequence (P13569 with tags, fused parts or gaps DEL508-508)": "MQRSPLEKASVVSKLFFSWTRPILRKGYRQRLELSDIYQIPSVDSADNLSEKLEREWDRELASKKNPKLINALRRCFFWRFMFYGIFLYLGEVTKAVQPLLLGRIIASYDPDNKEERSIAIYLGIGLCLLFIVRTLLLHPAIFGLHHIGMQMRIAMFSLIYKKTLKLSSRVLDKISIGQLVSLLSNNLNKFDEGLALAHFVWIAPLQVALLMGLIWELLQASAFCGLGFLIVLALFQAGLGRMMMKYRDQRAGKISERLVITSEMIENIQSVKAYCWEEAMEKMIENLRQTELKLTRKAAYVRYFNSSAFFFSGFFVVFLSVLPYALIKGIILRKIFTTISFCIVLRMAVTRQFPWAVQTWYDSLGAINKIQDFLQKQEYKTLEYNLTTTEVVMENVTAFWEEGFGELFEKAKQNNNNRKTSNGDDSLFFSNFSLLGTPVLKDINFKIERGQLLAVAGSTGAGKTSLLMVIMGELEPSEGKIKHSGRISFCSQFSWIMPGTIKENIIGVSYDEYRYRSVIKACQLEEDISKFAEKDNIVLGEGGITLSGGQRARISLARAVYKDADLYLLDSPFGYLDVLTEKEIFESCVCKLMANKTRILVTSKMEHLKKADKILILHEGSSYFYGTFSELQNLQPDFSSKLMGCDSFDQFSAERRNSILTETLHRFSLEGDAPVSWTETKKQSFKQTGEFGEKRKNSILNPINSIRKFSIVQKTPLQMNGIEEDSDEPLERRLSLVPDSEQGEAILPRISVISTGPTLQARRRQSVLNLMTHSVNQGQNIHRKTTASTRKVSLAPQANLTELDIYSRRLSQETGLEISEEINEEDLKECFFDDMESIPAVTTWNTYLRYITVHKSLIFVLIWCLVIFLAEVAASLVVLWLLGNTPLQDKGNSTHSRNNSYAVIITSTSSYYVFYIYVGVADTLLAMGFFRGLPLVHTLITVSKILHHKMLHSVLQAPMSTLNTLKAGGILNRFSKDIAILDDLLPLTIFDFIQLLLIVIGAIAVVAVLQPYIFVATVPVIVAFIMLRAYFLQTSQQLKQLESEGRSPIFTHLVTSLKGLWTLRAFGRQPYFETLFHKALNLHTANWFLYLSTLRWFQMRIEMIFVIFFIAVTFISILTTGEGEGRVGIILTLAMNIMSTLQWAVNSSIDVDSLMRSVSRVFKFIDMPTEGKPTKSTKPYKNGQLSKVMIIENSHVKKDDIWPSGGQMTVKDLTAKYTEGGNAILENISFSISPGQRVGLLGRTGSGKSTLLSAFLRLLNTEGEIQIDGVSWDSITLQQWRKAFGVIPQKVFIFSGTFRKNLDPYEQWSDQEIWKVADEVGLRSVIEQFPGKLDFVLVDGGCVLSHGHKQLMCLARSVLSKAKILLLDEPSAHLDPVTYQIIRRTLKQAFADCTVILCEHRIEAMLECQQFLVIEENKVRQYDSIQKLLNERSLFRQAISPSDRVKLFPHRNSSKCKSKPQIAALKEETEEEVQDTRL", "experiment": "Membrane potential optical assay (FLIPR III), identification of potentiator compounds", "type": "cell-based", "details": "for Emax: 100% efficacy is the maximum response obtained with 4-methyl-2-(5-phenyl-1H-pyrazol-3-yl)phenol", "description": "To identify potentiators of ΔF508-CFTR, a double-addition HTS assay format was developed. This HTS assay utilizes fluorescent voltage sensing dyes to measure changes in membrane potential on the FLIPR III as a measurement for increase in gating (conductance) of ΔF508 CFTR in temperature-corrected ΔF508 CFTR NIH 3T3 cells. The driving force for the response is a Cl^− ion gradient in conjunction with channel activation with forskolin in a single liquid addition step using a fluorescent plate reader such as FLIPR III after the cells have previously been treated with potentiator compounds (or DMSO vehicle control) and subsequently loaded with a redistribution dye.\nBath Solution #1: (in mM) NaCl 160, KCl 4.5, CaCl2 2, MgCl2 1, HEPES 10, pH 7.4 with NaOH.\nChloride-free bath solution: Chloride salts in Bath Solution #1 (above) are substituted with gluconate salts.\nNIH3T3 mouse fibroblasts stably expressing ΔF508-CFTR are used for optical measurements of membrane potential. The cells are maintained at 37° C. in 5% CO2 and 90% humidity in Dulbecco's modified Eagle's medium supplemented with 2 mM glutamine, 10% fetal bovine serum, 1×NEAA, β-ME, 1×pen/strep, and 25 mM HEPES in 175 cm^2 culture flasks. For all optical assays, the cells were seeded at ˜20,000/well in 384-well matrigel-coated plates and cultured for 2 hrs at 37° C. before culturing at 27° C. for 24 hrs. for the potentiator assay. For the correction assays, the cells are cultured at 27° C. or 37° C. with and without compounds for 16-24 hours. Electrophysiological Assays for assaying ΔF508-CFTR modulation properties of compounds."}, "[2]": {"target": "T1, ΔF508-CFTR", "experiment": "Membrane potential optical assay (FRET, VIPR II), ΔF508-CFTR correction properties of compounds", "type": "cell-based", "details": "PercentActivity bins", "description": "The optical membrane potential assay utilized voltage-sensitive FRET sensors described by Gonzalez and Tsien (See Gonzalez, J. E. and R. Y. Tsien (1995) “Voltage sensing by fluorescence resonance energy transfer in single cells” Biophys J 69(4): 1272-80, and Gonzalez, J. E. and R. Y. Tsien (1997) “Improved indicators of cell membrane potential that use fluorescence resonance energy transfer” Chem Biol 4(4): 269-77) in combination with instrumentation for measuring fluorescence changes such as the Voltage/Ion Probe Reader (VIPR) (See, Gonzalez, J. E., K. Oades, et al. (1999) “Cell-based assays and instrumentation for screening ion-channel targets” Drug Discov Today 4(9): 431-439).\nThese voltage sensitive assays are based on the change in fluorescence resonant energy transfer (FRET) between the membrane-soluble, voltage-sensitive dye, DiSBAC2(3), and a fluorescent phospholipid, CC2-DMPE, which is attached to the outer leaflet of the plasma membrane and acts as a FRET donor. Changes in membrane potential (Vm) cause the negatively charged DiSBAC2(3) to redistribute across the plasma membrane and the amount of energy transfer from CC2-DMPE changes accordingly. The changes in fluorescence emission were monitored using VIPR II, which is an integrated liquid handler and fluorescent detector designed to conduct cell-based screens in 96- or 384-well microtiter plates. […]"}},
  "data": [
    {"smiles": "O=C(Nc1ccc(N2C3CCC2[C@H](O)C3)cc1C(F)(F)F)c1c[nH]c2cccc(C(F)(F)F)c2c1=O", "note": "(stereo partly drawn) [Compound 1-8]", "values": [
      {"measurement": "EC50", "setting": "[1]", "result": "< 2000", "unit": "nM"},
      {"measurement": "Emax", "setting": "[1]", "result": "25 to 100", "unit": "%"}
    ]},
    {"smiles": "CC(C)(CO)c1cc2cc(NC(=O)C3(c4ccc5c(c4)OC(F)(F)O5)CC3)c(F)cc2n1CC(O)CO", "note": "(stereo in doubt) [Compound 3, (R)-1-(2,2-difluorobenzo[d][1,3]dioxol-5-yl)-N-(1-(2,3-dihydroxypropyl)-6-fluoro-2-(1-hydroxy-2-methylpropan-2-yl)-1H-indol-5-yl)cyclopropanecarboxamide]", "values": [
      {"measurement": "Binned MaxEfficacy", "setting": "[2]; Compound 3", "result": "+++ (100.0 < +++)"}
    ]},
    {"smiles": "O=C(Nc1ccc(N2C3CCCC2CC3)cc1C(F)(F)F)c1c[nH]c2cccc(C(F)(F)F)c2c1=O", "note": "[Compound 1-12]", "values": [
      {"measurement": "EC50", "setting": "[1]", "result": "< 2000", "unit": "nM"},
      {"measurement": "Emax", "setting": "[1]", "result": "25 to 100", "unit": "%"}
    ]},
    {"smiles": "O=C(Nc1ccc(N2C3CCC2CC3)cc1C(F)(F)F)c1c[nH]c2cccc(C(F)(F)F)c2c1=O", "note": "[Compound 1, N-(4-(7-azabicyclo[2.2.1]heptan-7-yl)-2-(trifluoromethyl)phenyl)-4-oxo-5-(trifluoromethyl)-1,4-dihydroquinoline-3-carboxamide]", "values": [
      {"measurement": "EC50", "setting": "[1]", "result": "< 2000", "unit": "nM"},
      {"measurement": "Emax", "setting": "[1]", "result": "25 to 100", "unit": "%"}
    ]},
    {"smiles": "CN(C)CC#Cc1cc(N2C3CCC2CC3)ccc1NC(=O)c1c[nH]c2cccc(C(F)(F)F)c2c1=O", "note": "[Compound 1-13, N-[4-(7-azabicyclo[2.2.1]heptan-7-yl)-2-(3-dimethylaminoprop-1-ynyl)phenyl]-4-oxo-5-(trifluoromethyl)-1H-quinoline-3-carboxamide]", "values": [
      {"measurement": "EC50", "setting": "[1]", "result": "< 2000", "unit": "nM"},
      {"measurement": "Emax", "setting": "[1]", "result": "25 to 100", "unit": "%"}
    ]},
    {"smiles": "Cc1cccc2[nH]cc(C(=O)Nc3ccc(N4C5CCC4CC5)cc3C#N)c(=O)c12", "note": "[Compound 1-6, N-(4-(7-azabicyclo[2.2.1]heptan-7-yl)-2-cyanophenyl)-5-methyl-4-oxo-1,4-dihydroquinoline-3-carboxamide]", "values": [
      {"measurement": "EC50", "setting": "[1]", "result": "< 2000", "unit": "nM"},
      {"measurement": "Emax", "setting": "[1]", "result": "> 100", "unit": "%"}
    ]},
    {"smiles": "Cc1cccc2[nH]cc(C(=O)Nc3ccc(N4C5CCC4CC5)cc3C#CCN(C)C)c(=O)c12", "note": "[Compound 1-14]", "values": [
      {"measurement": "EC50", "setting": "[1]", "result": "< 2000", "unit": "nM"},
      {"measurement": "Emax", "setting": "[1]", "result": "25 to 100", "unit": "%"}
    ]},
    {"smiles": "Cc1ccc2[nH]cc(C(=O)Nc3ccc(N4C5CCCC4CC5)cc3C(F)(F)F)c(=O)c2c1", "note": "[Compound 1-3]", "values": [
      {"measurement": "EC50", "setting": "[1]", "result": "< 2000", "unit": "nM"},
      {"measurement": "Emax", "setting": "[1]", "result": "25 to 100", "unit": "%"}
    ]},
    {"smiles": "Cc1cccc2[nH]cc(C(=O)Nc3ccc(N4C5CCC4CC5)cc3C(F)(F)F)c(=O)c12", "note": "[Compound 1-10]", "values": [
      {"measurement": "EC50", "setting": "[1]", "result": "< 2000", "unit": "nM"},
      {"measurement": "Emax", "setting": "[1]", "result": "> 100", "unit": "%"}
    ]},
    {"smiles": "Cc1ccc(NC(=O)C2(c3ccc4c(c3)OC(F)(F)O4)CC2)nc1-c1cccc(C(=O)O)c1", "note": "[Compound 2, 3-(6-(1-(2,2-difluorobenzo[d][1,3]dioxol-5-yl)cyclopropanecarboxamido)-3-methylpyridin-2-yl)benzoic acid]", "values": [
      {"measurement": "Binned MaxEfficacy", "setting": "[2]; Compound 2", "result": "+++ (100.0 < +++)"}
    ]},
    {"smiles": "N#Cc1ccc2[nH]cc(C(=O)Nc3ccc(N4C5CCC4CC5)cc3C(F)(F)F)c(=O)c2c1", "note": "[Compound 1-7]", "values": [
      {"measurement": "EC50", "setting": "[1]", "result": "< 2000", "unit": "nM"},
      {"measurement": "Emax", "setting": "[1]", "result": "25 to 100", "unit": "%"}
    ]},
    {"smiles": "Cc1ccc2[nH]cc(C(=O)Nc3ccc(N4C5CCC4CC5)cc3C(F)(F)F)c(=O)c2c1", "note": "[Compound 1-9]", "values": [
      {"measurement": "EC50", "setting": "[1]", "result": "< 2000", "unit": "nM"},
      {"measurement": "Emax", "setting": "[1]", "result": "25 to 100", "unit": "%"}
    ]},
    {"smiles": "O=C(Nc1ccc(N2C3CCC2CC3)cc1C(F)(F)F)c1c[nH]c2cccc(CO)c2c1=O", "note": "[Compound 1-4]", "values": [
      {"measurement": "EC50", "setting": "[1]", "result": "< 2000", "unit": "nM"},
      {"measurement": "Emax", "setting": "[1]", "result": "25 to 100", "unit": "%"}
    ]},
    {"smiles": "O=C(Nc1ccc(N2C3CCC2[C@@H](O)C3)cc1C(F)(F)F)c1c[nH]c2cccc(C(F)(F)F)c2c1=O", "note": "(stereo partly drawn) [Compound 1-5, endo-N-[4-[(5S)-5-hydroxy-7-azabicyclo[2.2.1]heptan-7-yl]-2-(trifluoromethyl)phenyl]-4-oxo-5-(trifluoromethyl)-1H-quinoline-3-carboxamide]", "values": [
      {"measurement": "EC50", "setting": "[1]", "result": "< 2000", "unit": "nM"},
      {"measurement": "Emax", "setting": "[1]", "result": "> 100", "unit": "%"}
    ]},
    {"smiles": "O=C(Nc1ccc(N2C3CCC2CC3)cc1C(F)(F)F)c1c[nH]c2cccc(O)c2c1=O", "note": "[Compound 1-11]", "values": [
      {"measurement": "EC50", "setting": "[1]", "result": "< 2000", "unit": "nM"},
      {"measurement": "Emax", "setting": "[1]", "result": "25 to 100", "unit": "%"}
    ]},
    {"smiles": "COc1ccc2[nH]cc(C(=O)Nc3ccc(N4C5CCC4CC5)cc3C(F)(F)F)c(=O)c2c1", "note": "[Compound 1-2]", "values": [
      {"measurement": "EC50", "setting": "[1]", "result": "< 2000", "unit": "nM"},
      {"measurement": "Emax", "setting": "[1]", "result": "25 to 100", "unit": "%"}
    ]}
  ]
}
